The values below come from ChEMBL document CHEMBL1144278, “A new bactericidal lead structure for the protection of materials” (Bioorg Med Chem Lett, 2005).

Each structure is given as a SMILES string. In brackets after ≈: the same amount, converted by molar mass. Where only a bound is given, the exact number is not on record here.

In data set [1] the test system is Pseudomonas aeruginosa. The data set is described as follows: Minimum inhibitory concentration against Pseudomonas aeruginosa NCIB 6749 was determined in chem. def. medium. In kind it is functional.
Data set [2] relates to Pseudomonas aeruginosa. The data set is described as follows: Minimum inhibitory concentration against Pseudomonas aeruginosa NCIB 6749 was determined in complex medium. In kind it is functional.
Data set [3] can be described thus: Half life period was determined. In kind it is ADME. Conditions: pH 9, 50 °C.
Data set [4] relates to Alcaligenes faecalis. The experiment in a line: Minimum inhibitory concentration against Alcaligenes faecalis was determined in agar medium. In kind it is functional.
Data set [5] is described as follows: Lethal dose in rat. Conditions: in vivo. In kind it is toxicity.
Data set [6] relates to Bacteria. The experiment in a line: Minimum inhibitory concentration against Corynebacterium was determined in agar medium. In kind it is functional.
In data set [7] the test system is Pseudomonas aeruginosa. The experiment in a line: Minimum inhibitory concentration against Pseudomonas aeruginosa NCIB 6749 was determined in agar medium. In kind it is functional.
Data set [8] can be described thus: Half life periof was determined. In kind it is ADME.
Data set [9] relates to Pseudomonas aeruginosa. The data set is described as follows: Minimum inhibitory concentration against Pseudomonas aeruginosa ATCC 15442 was determined in agar medium. In kind it is functional.
Data set [10] concerns Bacillus subtilis. The data set is described as follows: Minimum inhibitory concentration against Bacillus subtilis. In kind it is functional.
For data set [11], the system named is Pseudomonas aeruginosa. The experiment in a line: Minimum inhibitory concentration against Pseudomonas aeruginosa NCIB 12201 was determined in agar medium. In kind it is functional.

By MIC is commonly meant the smallest concentration in the dilution series that meets the test's criterion for growth inhibition. High values mean weaker potency, low ones greater potency. Take `O=C(OCC(Cl)(Cl)Cl)N(C(=O)OCC(Cl)(Cl)Cl)c1onc2c1CCC2`: the minimal inhibitory concentration (MIC) worked out at 10 µg/mL (≈ 21.1 µM) in [1] and 5 µg/mL (≈ 10.5 µM) in data set [2].
The term half-life denotes how long it takes for the measured level to halve. A low value points to fast loss. In the case of `O=C(Nc1onc2c1CCC2)C(F)(F)F`, the half-life in data set [3] is 105 h.
Turning to `CC(C)COC(=O)N(C(=O)OCC(C)C)c1onc2c1CCC2`, the MIC in data set [1] amounted to 10 µg/mL (≈ 30.8 µM); in data set [2], 5 µg/mL (≈ 15.4 µM).
As for `CCCC(=O)N(C(=O)CCC)c1onc2c1CCC2`, the half-life in data set [3] was 6 h.
For `O=C(OCCCl)N(C(=O)OCCCl)c1onc2c1CCC2`, the MIC worked out at 10 µg/mL (≈ 29.7 µM) in [1] and 5 µg/mL (≈ 14.8 µM) in data set [2].
In the case of `O=C(OCCBr)N(C(=O)OCCBr)c1onc2c1CCC2`, the minimum inhibitory concentration (MIC) was 10 µg/mL (≈ 23.5 µM) in [1] and 5 µg/mL (≈ 11.7 µM) in [2].
Regarding `C=C(C)OC(=O)N(C(=O)OC(=C)C)c1onc2c1CCC2`, the MIC in [1] and in data set [2] was 10 µg/mL (≈ 34.2 µM) each time.
In the case of `CCCCOC(=O)N(C(=O)OCCCC)c1onc2c1CCC2`, the MIC in data set [1] and in data set [2] was 10 µg/mL (≈ 30.8 µM) throughout.
For orientation: LD50 means the dose expected to kill half of the subjects tested. A high value points to a less toxic substance. With `Nc1onc2c1CCC2`, the MIC in data set [4] was under 1 µg/mL; in data set [6], under 1 µg/mL; in data set [7], under 1 µg/mL; in data set [9], 5 µg/mL (≈ 40.3 µM); in data set [10], 5 µg/mL (≈ 40.3 µM); in data set [11], 7.5 µg/mL (≈ 60.4 µM). The median lethal dose (LD50) in data set [5] was under 300 mg/kg. Besides, the half-life in [8] was 97 h.
